Assay results taken from paper PMC6246635 (Frontiers in Physiology, 2018).

Legend:
[1] = tested on: mouse ventricular cardiomyocytes; experiment: patch clamp action potential recording; assay type: cell-based; settings: 2 μM, 5 min superfusion, 1 Hz
Description: (§1) Cardiomyocytes were isolated from adult mice (14–18 weeks old, either sex). The experimental procedure and number of used animals were approved by the ethics committee of the Federal Ministry of Science, Research and Economy of the Republic of Austria (BMWF-66.010/0038-V/3b/2018). Mice were euthanized (40 mg/kg ketamine and 10 mg/kg xylazine), hearts were quickly removed and cardiomyocytes were isolated as previously described ([Ackers-Johnson et al., 2016]) using collagenase 2 and 4 (Worthington Biochemical Corporation, NJ, United States). After isolation cardiomyocytes were kept in standard external solution (containing in mM: NaCl 137, KCl 5.4, CaCl2 1.8, MgCl2 1.1, NaHCO3 2.2, NaH2PO4 0.4, HEPES/Na^+ 10, D(+)-glucose 5.6, pH 7.4 adjusted with NaOH). All experiments were performed on the day of isolation.
Action potentials (APs) were recorded in the whole cell configuration of the patch clamp technique using Axopatch 200B amplifier (Molecular Devices, CA, United States) and the A/D – D/A converters Digidata 1322A (Molecular Devices). […] Ten consecutive APs were analyzed using LabChart 7.0 (Cardiac action potential analysis module, ADInstruments Ltd., Oxford, United Kingdom).

PKC [2] = experiment: PKC activity assay in HL-1 cells; assay type: cell-based, murine
Description: (§2) HL-1 cells (a murine cardiomyocyte cell line, Sigma-Aldrich, Vienna, Austria) were cultured in fibronectin (0.5% [w/v])/gelatin (0.02% [w/v]) coated flasks and maintained in Claycomb medium (Sigma-Aldrich) ([Claycomb et al., 1998]) containing 10% (v/v) fetal bovine serum (FBS, Thermo Fisher Scientific, IL, United States), 0.1 mM norepinephrine, 2 mM L-glutamine, 100 IU/ml penicillin and 100 μg/ml streptomycin (Sigma-Aldrich), and kept at 37°C under 5% CO2, as previously described ([Scheruebel et al., 2014]).
(§3) HL-1 cells were transfected with siRNAs (four different constructs) specific for DPP8 or DPP9 (40 nM each, Qiagen), or scrambled negative control siRNA (40 nM si-scr; Allstars negative control siRNA, Qiagen) ([Koyani et al., 2014]). The siRNA transfection was performed using Lipofectamine 3000 (Invitrogen) according to the supplier’s manual. Briefly, HL-1 (50% confluent) were transfected with 1 ml medium (composition of medium is given above, without FBS and antibiotics) containing 2 μl of Lipofectamine 3000 and the respective siRNA for 6 h at 37°C. Transfection medium was replaced with medium (containing FBS and antibiotics) and cells were grown for another 24 h. The mRNA expression levels of silenced genes were measured using qPCR (see above).
Estimation of active PKC was performed using a PKC kinase activity kit (ADI-EKS-420A, Enzo Life Sciences, NY, United States) according to the manufacturer’s protocol.

PLB = experiment: Western blot pPLB (T17); assay type: cell-based, murine; settings: HL-1 cells
Description: as §2
(§4) HL-1 cells or mouse left ventricle (LV) were lysed in ice-cold lysis buffer (containing in mM: HEPES 50, NaCl 150, EDTA 1, Na4P2O7 10, Na3VO4 2, NaF 10, 1% [v/v] Triton X-100, 10% [v/v] glycerol, pH 7.4, Sigma-Aldrich) containing a Protease Phosphatase Inhibitor Cocktail (Thermo Fisher Scientific). Pellets were separated by centrifugation at 13,000 rpm (4°C, 10 min). Protein estimation of whole cell was performed using BCA protein assay kit (Thermo Fisher Scientific). Whole cell protein lysates (50 μg) were added to 10 μl of NuPAGE LDS sample buffer (Invitrogen) containing 2 μl of NuPAGE sample reducing agent (Invitrogen). After heating for 10 min at 70°C, proteins were separated by electrophoresis on NuPAGE 4–12% Bis-Tris gel (Invitrogen) and transferred to nitrocellulose membranes (Invitrogen, 0.2 μm) ([Jain et al., 2015]). Membranes were blocked with 5% (w/v) non-fat milk in Tris-buffered saline containing Tween 20 (TBST, 25°C, 2 h) and incubated with primary antibodies overnight at 4°C. The following primary antibodies (diluted in 5% [w/v] BSA-TBST) were used: phospho-CaMKII (pCaMKII, T286, 1:1000, Abcam, ab32678), phospho-PLB (pPLB, T17, 1:5000, Badrilla, A010-13), DPP8 (1:500, Santa Cruz, sc-376399), DPP9 (1:500, Santa Cruz, sc-271634), CaMKII (1:500, Santa Cruz, sc-9035), and PLB (1:2000, Thermo Fisher Scientific, MA3-922). After washing, the membranes were incubated with HRP-conjugated goat anti-mouse IgG (1:10,000, Cell Signaling, 7076) or goat anti-rabbit IgG (1:10,000, Cell Signaling, 7074) (25°C, 2 h). Immunoreactive bands were visualized using Immobilon Western Chemiluminescent HRP substrate (Merck Millipore, Vienna, Austria) and developed by Bio-Rad ChemiDoc MP Imaging System. For normalization, membranes were stripped with stripping buffer (58.4 g/l NaCl, 7.5 g/l glycine, pH 2.15), blocked and incubated with a primary antibody against glyceraldehyde 3-phosphate dehydrogenase (GAPDH, 1:1000, Santa Cruz, sc-25778). Densitometric evaluation of immunoreactive bands was performed using Image Lab 4.1 software.
as §3

PKC [3] = tested on: PKC; set-up: method as in Dai et al., 2014; settings: THP-1 macrophages; ref Dai et al., 2014; cited from earlier work
[4] = set-up: method as in Koyani et al., 2017; Lee et al., 2016; He et al., 2009; settings: in vitro studies; ref Koyani et al., 2017; Lee et al., 2016; He et al., 2009; cited from earlier work
[5] = set-up: method as in Onglyza, 2016; settings: 5 mg single dose; ref Onglyza, 2016; cited from earlier work
CaMKII = experiment: Western blot pCaMKII (T286); assay type: cell-based, murine; settings: HL-1 cells
Description: as §2, §4, §3

[6] = plasma Cmax after single dose; assay type: in vivo; settings: human, 5 mg single dose, equivalent of 24 ng/ml (Onglyza, 2016), read-out: plasma Cmax, molar equivalent
[7] = tested on: mouse ventricular cardiomyocytes; experiment: Ca2+ transient (CaT) measurement; assay type: cell-based; settings: 2 μM, 2 h, 1 Hz
Description: as §1
CaT was assessed by field stimulation (platinum electrode distance: 1 cm; pulse duration: 5 ms; suprathreshold pulse amplitude: 4 V/cm) at a frequency of 1 Hz using a video-based sarcomere length detection system (IonOptix Corporation, MA, United States) at 37°C. Fluorescence intensities were measured at 340 and 380 nm of excitation and at 510 nm of emission wavelengths using a dual excitation light source. The F340/F380 ratio was used as an index of cytosolic Ca^2+ concentration and to calculate CaT relaxation tau (τCaT). Data were analyzed using Clampfit 10.2 (Molecular Devices) and LabChart 7.0 (peak analysis module, ADInstruments Ltd., Oxford, United Kingdom).

CaMKII and PLB = experiment: Western blot total CaMKII and PLB expression; assay type: cell-based, murine; settings: HL-1 cells, 2 μM, time course
Description: as §2
HL-1 cells or mouse left ventricle (LV) were lysed in ice-cold lysis buffer (containing in mM: HEPES 50, NaCl 150, EDTA 1, Na4P2O7 10, Na3VO4 2, NaF 10, 1% [v/v] Triton X-100, 10% [v/v] glycerol, pH 7.4, Sigma-Aldrich) containing a Protease Phosphatase Inhibitor Cocktail (Thermo Fisher Scientific). Pellets were separated by centrifugation at 13,000 rpm (4°C, 10 min). Protein estimation of whole cell was performed using BCA protein assay kit (Thermo Fisher Scientific). Whole cell protein lysates (50 μg) were added to 10 μl of NuPAGE LDS sample buffer (Invitrogen) containing 2 μl of NuPAGE sample reducing agent (Invitrogen). After heating for 10 min at 70°C, proteins were separated by electrophoresis on NuPAGE 4–12% Bis-Tris gel (Invitrogen) and transferred to nitrocellulose membranes (Invitrogen, 0.2 μm) ([Jain et al., 2015]). […]

DPP9 = tested on: DPP9; set-up: method as in Lankas et al., 2005; settings: ref Lankas et al., 2005; cited from earlier work
DPP8 = tested on: DPP8; set-up: method as in Lankas et al., 2005; settings: ref Lankas et al., 2005; cited from earlier work
[8] = set-up: method as in Udenfriend et al., 1972; settings: unbound, aqueous solution; ref Udenfriend et al., 1972; cited from earlier work
PKC [9] = tested on: PKC; set-up: method as in Hasegawa et al., 2016; settings: human endothelial cells; ref Hasegawa et al., 2016; cited from earlier work
HL-1 cardiomyocytes = experiment: fluorescence microscopy of fluorescamine adduct uptake; assay type: cell-based, murine; settings: HL-1 cells, drug-fluorescamine 2–2 μM
Description: as §2, with “2014]). […] Fluorescence images were captured at excitation/emission wavelengths of 390/470 nm.” for “2014]).”

[10] = set-up: method as in Green et al., 2015; settings: TECOS trial, T2DM patients; ref Green et al., 2015; cited from earlier work

What does the source list for `N#C[C@@H]1C[C@@H]2C[C@@H]2N1C(=O)[C@@H](N)C12CC3CC(CC(O)(C3)C1)C2` [saxagliptin]?
action potential duration (APD, 90% repolarization) [1]: prolongation of APD; reduced PKC activity, time from which observed (PKC [2]; 2 μM): ≥ 2.5 min; efficacy on PKC activity in DPP8/DPP9 silenced cardiomyocytes (PKC [2]; 2 μM, 10 min): significantly abolished in DPP9 (but not DPP8) silenced cardiomyocytes; reduced PKC activity, concentration from which observed (PKC [2]; 10 min): ≥ 1 µM; reduced pPLB (T17), time from which observed (PLB; 2 μM): ≥ 15 min; efficacy on pPLB expression in DPP8/DPP9 silenced cells (PLB; 2 μM, 30 min): abolished in DPP9 (but not DPP8) silenced cells; reduced pPLB expression, concentration from which observed (PLB; 30 min): ≥ 200 nM; oxidized low-density lipoprotein-induced pPKC levels (PKC [3]): inhibited; membrane permeability [4]: significant membrane permeability; plasma Cmax [5]: 24 ng/mL; reduced CaMKII phosphorylation (T286), time from which observed (CaMKII; 2 μM): ≥ 2.5 min; pCaMKII expression in DPP8 knocked down cardiomyocytes (CaMKII; 2 μM, 5 min, si-DPP8): effectively inhibited; inhibition of CaMKII phosphorylation, concentration from which observed (CaMKII; 5 min): ≥ 200 nM; Cmax [6]: ~76 nM; CaT relaxation (reciprocal of τCaT) [7]: impaired cardiac relaxation

For `CC[C@@H](C)[C@H](N)C(=O)N1Cc2ccccc2C1.Cl` [TC-E 5007], which “total CaMKII and PLB protein levels” value (CaMKII and PLB) is on record?
The value was “did not affect”.

What about the “reduced PKC activity, time from which observed” value (PKC [2]; 2 μM) of the same compound?
The value was no less than 10 min.

What about the “reduced pPLB (T17), time from which observed” value (PLB; 2 μM) of the same compound?
The value was no less than 60 min.

What about the “reduced CaMKII phosphorylation (T286), time from which observed” value (CaMKII; 2 μM) of the same compound?
The value was no less than 30 min.

What about the “CaT relaxation (reciprocal of τCaT)” value [7] of the same compound?
Its value is “impaired cardiac relaxation”.

Which membrane permeability [4] does the source give for `N#C[C@@H]1CCCN1C(=O)CNC12CC3CC(CC(O)(C3)C1)C2` [vildagliptin] here?
The membrane permeability was “significant membrane permeability”.

For `O=C1OC2(OC=C(c3ccccc3)C2=O)c2ccccc21` (stereo not shown) [fluorescamine], which half-life [8] is on record?
Its half-life is 5 to 10 s.

With `N[C@@H](CC(=O)N1CCn2c(nnc2C(F)(F)F)C1)Cc1cc(F)c(F)cc1F` [sitagliptin] as the compound, how does the “action potential duration (APD, 90% repolarization)” value [1] read?
The value was “not”.

And the “effect on intracellular PKC activity” value (PKC [2]; time course (2 μM) and concentration series (10 min))?
Its value is “no effect”.

What about the “effect on PLB phosphorylation levels” value (PLB; time course (2 μM) and concentration series (30 min)) of the same compound?
The value was “neither time- (Figure 2F) nor concentration-dependent experiments (Figure 2H) showed an effect”.

What about the “effect on PKC activity” value (PKC [9]) of the same compound?
Its value is “ineffective”.

What about the membrane permeability [4] of the same compound?
Its membrane permeability is “significant membrane permeability”.

What about the “cellular uptake and localization (fluorescence)” value (HL-1 cardiomyocytes) of the same compound?
The value was “internalized by cardiomyocytes and localizes in the cytosol”.

And the “effect on pCaMKII expression, time course” value (CaMKII; 2 μM)?
Its value is “failed to inhibit”.

And the “effect on CaMKII phosphorylation, concentration-dependent” value (CaMKII; up to 10 μM, 5 min)?
The value was “no effect”.

And the “effect on the hospitalization of HF” value [10]?
The value was “did not show any effect”.

What about the “CaT relaxation (reciprocal of τCaT)” value [7] of the same compound?
The value was “ineffective”.
